Test results reported in patent US6432922B1 (Corvas International, Inc., priority 1998, dated 2002).
Where two headings read alike, the source gives them in different places. Non-standard residues stand in square brackets, D forms with d. Residues, ends and D or L forms follow the SMILES beside them. *: point of attachment. d(aThr) = C[C@@H](O)[C@@H](N)C(=O)O; cisHyp = O=C(O)[C@@H]1C[C@H](O)CN1; AllylGly = C=CC[C@H](N)C(=O)O; d(hSer) = N[C@H](CCO)C(=O)O; Pra = C#CC[C@H](N)C(=O)O; dDap = NC[C@@H](N)C(=O)O; Aze = O=C(O)[C@@H]1CCN1; Cbz = O=C(OCc1ccccc1)*; Moc = COC(=O)*

Tests used:
Human rt-PA (Activase) = target: T1, Human rt-PA (Activase) (Homo sapiens, UniProt P00750); assay: Recombinant tissue plasminogen activator (rt-PA) chromogenic assay; type: biochemical; conditions: 30 minute preincubation, HBSA buffer; read-out: tPA IC50
T1 construct: purchased Genentech Inc
T1 sequence (P00750 36-562): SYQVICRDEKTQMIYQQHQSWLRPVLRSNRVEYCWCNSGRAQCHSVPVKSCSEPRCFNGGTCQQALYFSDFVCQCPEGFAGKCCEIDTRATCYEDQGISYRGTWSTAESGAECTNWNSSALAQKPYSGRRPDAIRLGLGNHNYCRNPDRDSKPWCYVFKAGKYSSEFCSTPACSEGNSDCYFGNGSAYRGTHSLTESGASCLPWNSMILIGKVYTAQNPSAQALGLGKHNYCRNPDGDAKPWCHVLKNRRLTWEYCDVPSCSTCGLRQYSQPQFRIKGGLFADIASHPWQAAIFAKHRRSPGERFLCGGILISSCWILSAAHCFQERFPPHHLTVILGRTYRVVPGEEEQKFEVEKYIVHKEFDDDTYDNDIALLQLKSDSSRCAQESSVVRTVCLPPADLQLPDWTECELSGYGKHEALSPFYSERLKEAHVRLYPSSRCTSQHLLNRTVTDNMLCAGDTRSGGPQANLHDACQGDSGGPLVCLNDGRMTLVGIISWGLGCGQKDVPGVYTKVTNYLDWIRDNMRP
Experimental: rt-PA catalytic activity was determined using the substrate, Pefachrome t-PA (CH3SO2-D-hexahydrotyrosine-glycyl-L-arginine-p-nitroaniline, obtained from Pentap harm Ltd.). The substrate was made up in deionized water followed by dilution in HBSA prior to the assay in which the final concentration was 500 micromolar (about 3-times Km). Human rt-PA (Activase®) was obtained from Genentech Inc. The enzyme was reconstituted in deionized water and diluted into HBSA prior to the assay in which the final concentration was 1.0 nM.

Urokinase (Abbokinase) = Urokinase (Abbokinase) (Homo sapiens, UniProt P00749); assay: Urokinase chromogenic substrate (S-2444) IC50 assay
Experimental: The buffer used for all assays was HBSA (10 mM HEPES, pH 7.5, 150 mM sodium chloride, 0.1% bovine serum albumin).
The initial velocity of chromogenic substrate hydrolysis was measured by the change in absorbance at 405 nm using a Thermo Max® Kinetic Microplate Reader over a 5 minute period in which less than 5% of the added substrate was utilized.
The assay buffer was HBS (10mM HEPES, 150mM sodium chloride pH 7.4) with 0.1% BSA.

human plasmin = target: T2, human plasmin (Homo sapiens, UniProt P00747); assay: Plasmin chromogenic substrate (S-2366) assay; type: biochemical; conditions: 30 minute preincubation, HBSA buffer
T2 construct: purchased Enzyme Research Laboratories, Inc
T2 sequence (P00747 581-810 limits assumed): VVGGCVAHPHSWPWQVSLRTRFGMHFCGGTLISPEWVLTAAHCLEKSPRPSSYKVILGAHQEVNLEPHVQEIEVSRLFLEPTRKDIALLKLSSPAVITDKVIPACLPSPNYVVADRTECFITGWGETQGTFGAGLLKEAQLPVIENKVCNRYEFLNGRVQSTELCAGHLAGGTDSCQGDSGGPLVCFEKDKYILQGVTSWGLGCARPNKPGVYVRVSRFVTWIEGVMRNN
T2 sequence (P00747 97-580 partner limits assumed): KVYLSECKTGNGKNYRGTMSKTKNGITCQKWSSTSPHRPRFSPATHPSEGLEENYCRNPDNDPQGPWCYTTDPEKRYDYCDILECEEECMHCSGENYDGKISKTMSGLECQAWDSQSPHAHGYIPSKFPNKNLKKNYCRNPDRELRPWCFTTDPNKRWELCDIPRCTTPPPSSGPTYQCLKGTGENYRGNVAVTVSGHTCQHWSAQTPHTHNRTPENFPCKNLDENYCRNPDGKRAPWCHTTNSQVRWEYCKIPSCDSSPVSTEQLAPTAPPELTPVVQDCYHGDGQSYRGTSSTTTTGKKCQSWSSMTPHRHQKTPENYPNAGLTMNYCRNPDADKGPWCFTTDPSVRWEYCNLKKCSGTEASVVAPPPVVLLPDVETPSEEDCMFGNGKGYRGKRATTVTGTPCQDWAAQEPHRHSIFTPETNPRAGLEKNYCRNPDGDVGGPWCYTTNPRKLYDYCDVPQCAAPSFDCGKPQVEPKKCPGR
Experimental: The substrate was made up in deionized water followed by dilution in HBSA prior to the assay in which the final concentration was 300 micromolar (about 2.5-times Km). Purified human plasmin was obtained from Enzyme Research Laboratories, Inc. The enzyme was diluted into HBSA prior to assay in which the final concentration was 1.0 nM.

[1] = test system: human fibrosarcoma cells (HT 1080); assay: Growth of human HT1080 tumor cells in chick embryo model; type: in vivo, chicken; conditions: for Tumor wet weight: 7 days incubation
Experimental: A chicken embryo model was used to evaluate the activity of Compound 1 to inhibit the growth of human tumor cells in vivo. A single cell suspension of human fibrosarcoma cells (HT 1080), containing 4×10^5 cells in a total volume of 40 μl, was applied to 10 day old chick embryos as described by Brooks, et al (“Brooks, P.C., et al, “Integrin αvβ3 Antagonists Promote Tumor Regression by Inducing Apoptosis of Angiogenic Blood Vessels”, Cell 79:1157-1164 (1994)). Twenty-four hours later 0 to 10 μg of Compound 1 was injected intravenously into the embryos. Following this single administration of compound, control and treated embryos were incubated for a total of 7 days and then sacrificed. Tumors were excised, trimmed free of surrounding CAM tissue, and weighed. Each experimental group contained 10 to 12 chicken embryos. A single dose of 10 μg of Compound 1 reduced tumor weight by approximately 65%.

[2] = test system: bFGF-induced angiogenesis on the CAM of chick embryos; assay: Chicken CAM model of bFGF-induced angiogenesis; type: in vivo; conditions: for Angiogenic Index / # of Blood Vessel Branch Points: bFGF; for Angiogenic Index: difference in branch points vs untreated control embryos; for # of Blood Vessel Branch Points: single administration
Text: A test compound can either be added to the filter disc that contains the angiogenesis inducer, be placed directly on the membrane or be administered systemically. The extent of new blood vessel formation in the presence and/or absence of test compound can be compared using this model. The formation of fewer new blood vessels in the presence of a test compound would be indicative of anti-angiogenesis activity.
The chicken CAM (chick embryo chorioallantoic membrane) model, a standard angiogenesis assay, was used to evaluate the ability of Compound 1 to inhibit angiogenesis. This model is an established model for evaluation of activity of a test compound to affect formulation of new blood vessels.
A filter disc saturated with a 0.5 μg/ml solution of basic fibroblast growth factor (bFGF) was placed on the CAM of 10 day old chick embryos to induce angiogenesis. Twenty four hours later, 0 to 1 μg of Compound 1, in a total volume of 100 μl of sterile PBS, was injected intravenously into the embryo. Approximately 48 hours later, the embryos were sacrificed and the filter discs and surrounding CAM tissue were excised for analysis. Angiogenesis was quantitated by counting the number of blood vessel branch points within the confined region of the filter [Brooks, P.C., et al, Methods in Molecular Biology 120:257-269 (1999)]. The angiogenic index is defined as the difference in the number of blood vessel branch points between an experimental group and the untreated, control embryos. Each experimental group contained 8 to 10 chicken embryos. A single administration of 1 μg of Compound 1 inhibited angiogenesis by 92% in this experiment.

[3] = read-out: uPA IC50, 30 minute preincubation, HBSA buffer

Molecule	IC50 (Human rt-PA (Activase))	IC50 (Urokinase (Abbokinase))	IC50 (human plasmin)	also measured
C[C@H](NC(=O)[C@@H](CO)NS(=O)(=O)CCCc1ccccc1)C(=O)N[C@H](C=O)CCCNC(=N)N [Compound 48, 3-phenylpropylsulfonyl-D-seryl-alanyl-argininal]	> 2500 nM	< 100 nM	250 to 2500 nM	
N=C(N)NCCC[C@@H](C=O)NC(=O)[C@@H]1C[C@H](O)CN1C(=O)[C@@H](CO)NC(=O)OCc1ccccc1 [Compound 49, benzyloxycarbonyl-D-seryl-L-cis-4-hydroxyprolyl-argininal] (Cbz-[dS]-[cisHyp]-Arg-aldehyde)	> 2500 nM	< 100 nM	250 to 2500 nM	
benzyloxycarbonyl-D-seryl-L-β-cyanoalanine-argininal [Compound 46]	> 2500 nM		250 to 2500 nM	IC50 (Urokinase (Abbokinase); [3]): < 100 nM
C#CC[C@H](NC(=O)[C@@H](CO)NC(=O)OCc1ccccc1)C(=O)N[C@H](C=O)CCCNC(=N)N [Compound 51, benzyloxycarbonyl-D-seryl-L-propargylglycyl-argininal] (Cbz-[dS]-[Pra]-Arg-aldehyde)	> 2500 nM	< 100 nM	250 to 2500 nM	
C[C@H](NC(=O)[C@H](NC(=O)OCc1ccccc1)[C@@H](C)O)C(=O)N[C@H](C=O)CCCNC(=N)N [Compound 19, benzyloxycarbonyl-D-allothreonyl-alanyl-argininal] (Cbz-[d(aThr)]-Ala-Arg-aldehyde)	> 2500 nM	< 100 nM	250 to 2500 nM	
C[C@H](NC(=O)[C@@H](CO)NS(=O)(=O)CCc1ccccc1)C(=O)N[C@H](C=O)CCCNC(=N)N [Compound 47, 2-phenylethylsulfonyl-D-seryl-alanyl-argininal]	> 2500 nM	< 100 nM	250 to 2500 nM	
C[C@H](NC(=O)[C@@H](CO)NC(=O)OCC1CCCCC1)C(=O)N[C@H](C=O)CCCNC(=N)N [Compound 36, cyclohexylmethyloxycarbonyl-D-seryl-alanyl-argininal]	> 2500 nM	< 100 nM	250 to 2500 nM	
C[C@H](NC(=O)[C@@H](CO)NS(=O)(=O)c1ccccc1)C(=O)N[C@H](C=O)CCCN=C(N)N [Compound 28, Benzenesufonyl-D-Ser-L-Ala-L-Arg-al]	> 2500 nM		250 to 2500 nM	IC50 (Urokinase (Abbokinase); [3]): < 100 nM
N=C(N)NCCC[C@@H](C=O)NC(=O)[C@@H]1CCCN1C(=O)[C@@H](CO)NC(=O)OCc1ccccc1 [Compound 11, benzyloxycarbonyl-D-seryl-prolyl-argininal] (Cbz-[dS]-Pro-Arg-aldehyde)	> 2500 nM	< 100 nM	250 to 2500 nM	
C=CC[C@H](NC(=O)[C@@H](CO)NC(=O)OCc1ccccc1)C(=O)N[C@H](C=O)CCCNC(=N)N [Compound 52, benzyloxycarbonyl-D-seryl-L-allylglycyl-argininal] (Cbz-[dS]-[AllylGly]-Arg-aldehyde)	> 2500 nM	100 to 250 nM	250 to 2500 nM	
COC(=O)NC[C@@H](NC(=O)OCc1ccccc1)C(=O)N[C@@H](C)C(=O)N[C@H](C=O)CCCNC(=N)N [Compound 43, N-α-benzyloxycarbonyl-N-β-methyloxycarbonyl-D-2,3-diaminopropionyl-alanyl-argininal] (Cbz-[dDap](Moc)-Ala-Arg-aldehyde)	> 2500 nM	250 to 2500 nM	250 to 2500 nM	
C[C@H](NC(=O)[C@@H](CO)NC(=O)OCc1ccccc1)C(=O)N[C@H](C=O)CCCNC(=N)N [Compound 2, Benzyloxycarbonyl-D-seryl-alanyl-argininal] (Cbz-[dS]-Ala-Arg-aldehyde)	250 to 2500 nM	< 100 nM	250 to 2500 nM	
C[C@H](NC(=O)[C@@H](CO)NS(=O)(=O)/C=C/c1ccccc1)C(=O)N[C@H](C=O)CCCNC(=N)N [Compound 53, trans-β-Styrenesulfonyl-D-seryl-L-alanyl-argininal]	> 2500 nM	< 100 nM	250 to 2500 nM	
CC[C@@H](NC(=O)OCc1ccccc1)C(=O)N[C@@H](C)C(=O)NC(C=O)CCCNC(=N)N (stereo partly shown) [Compound 44]	> 2500 nM	250 to 2500 nM	250 to 2500 nM	
N=C(N)NCCC[C@@H](C=O)NC(=O)[C@@H]1CCN1C(=O)[C@@H](CO)NC(=O)OCc1ccccc1 [Compound 12, benzyloxycarbonyl-D-seryl-L-azetidine-2-carbonyl-argininal] (Cbz-[dS]-[Aze]-Arg-aldehyde)	> 2500 nM	< 100 nM	250 to 2500 nM	
CC(C)COC(=O)N[C@H](CO)C(=O)N[C@@H](C)C(=O)N[C@H](C=O)CCCNC(=N)N [Compound 1, Isobutyloxycarbonyl-D-seryl-L-alanyl-argininal]	> 2500 nM	< 100 nM	250 to 2500 nM	Tumor wet weight ([1]; 1 μg single intravenous dose): 174 ± 25 mg; Tumor wet weight ([1]; 10 μg single intravenous dose): 97 ± 15 mg; reduction of tumor weight ([1]; single dose of 10 μg): approximately 65%; Angiogenic Index ([2]; 0.001 μg Compound 1): 22; # of Blood Vessel Branch Points ([2]; 0.001 μg Compound 1 intravenously): 35 +/− 5; Angiogenic Index ([2]; 0.01 μg Compound 1): 8; # of Blood Vessel Branch Points ([2]; 0.01 μg Compound 1 intravenously): 21 +/− 5; Angiogenic Index ([2]; 1.0 μg Compound 1): 2; # of Blood Vessel Branch Points ([2]; 1.0 μg Compound 1 intravenously): 15 +/− 1; inhibition of angiogenesis ([2]; single administration of 1 μg, intravenously): 92%
N=C(N)NCCC[C@@H](C=O)NC(=O)[C@@H]1CCCN1C(=O)[C@@H](CCO)NC(=O)OCc1ccccc1 [Compound 27, benzyloxycarbonyl-D-homoseryl-prolyl-argininal] (Cbz-[d(hSer)]-Pro-Arg-aldehyde)	> 2500 nM	100 to 250 nM	< 100 nM	
